Data reported in ChEMBL document CHEMBL3046565, “Fungicidal and herbicidal activities of berberine related alkaloids” (2000).

Key:
Assay type in all cases: functional
[1] = system: Zymoseptoria tritici; experiment: Antifungal activity against Zymoseptoria tritici on wheat plant at 25 ppm after 24 hr
[2] = system: Pyricularia oryzae; experiment: microbe, parasite or virus in culture; conditions: 24 h
[3] = system: Blumeria graminis f. sp. tritici; experiment: Antifungal activity against Blumeria graminis f. sp. tritici on wheat plant assessed as disease control at 100 ppm after 24 hr
[4] = system: Rhizoctonia solani; experiment: Antifungal activity against Rhizoctonia solani on rice plant at 25 ppm after 24 hr
[5] = system: Ustilago maydis; experiment: Antifungal activity against Ustilago maydis on rice plant at 25 ppm after 24 hr; conditions: Mycosarcoma maydis
[6] = system: Puccinia recondita; experiment: Antifungal activity against Puccinia recondita on wheat plant assessed as disease control at 100 ppm after 24 hr
[7] = system: Lemna minor; experiment: Herbicidal activity against Lemna minor (common duckweed) at 1 ppm after 9 days relative to control
[8] = system: Agrostis stolonifera var. palustris; experiment: Herbicidal activity against Agrostis stolonifera var. palustris at 1 ppm after 9 days relative to control
[9] = system: Phytophthora infestans; experiment: microbe, parasite or virus in culture; conditions: in Oryza sativa, 24 h
[10] = system: Parastagonospora nodorum; experiment: Antifungal activity against Phaeosphaeria nodorum on wheat plant assessed as disease control at 100 ppm after 24 hr
[11] = system: Parastagonospora nodorum; experiment: Antifungal activity against Phaeosphaeria nodorum on wheat plant at 25 ppm after 24 hr

| Structure (SMILES) | inhibition at 25 ppm [1] | inhibition at 25 ppm [2] | Activity [3] | inhibition at 25 ppm [4] | inhibition at 25 ppm [5] | Activity [6] | Activity [7] | Activity [8] | inhibition at 25 ppm [9] | Activity [10] | inhibition at 25 ppm [11] |
| --- | --- | --- | --- | --- | --- | --- | --- | --- | --- | --- | --- |
| COc1ccc2c(c1OC)C[N+]1(C)CCc3cc4c(cc3C1=C2C)OCO4.[Cl-] (configuration not stated) | 0% | 0% | 0% | 0% | 40% | 0% | 0% | 0% | 0% | 0% | 0% |
| COc1ccc2c(c1OC)CN1CCc3cc4c(cc3[C@@H]1[C@@H]2C)OCO4.Cl | 0% | 0% | 0% | 0% | 0% | 0% | 0% | 0% | 0% | 0% | 0% |
| COc1ccc2c(c1OC)CN1CCc3cc4c(cc3[C@@H]1[C@H]2O)OCO4.Cl | 0% | 0% | 0% | 0% | 0% | 0% | 0% | 0% | 0% | 0% | 0% |
| COc1ccc2c(c1OC)C[N@@+]1(C)CCc3cc4c(cc3[C@@H]1[C@@H]2C)OCO4.[Cl-] | 0% | 0% | 0% | 0% | 0% | 0% | 0% | 0% | 0% | 0% | 0% |
| COc1ccc2c(c1OC)C[N@+]1(C)CCc3cc4c(cc3[C@@H]1[C@H]2O)OCO4.[Cl-] | 0% | 0% | 0% | 0% | 0% | 0% | 0% | 0% | 0% | 0% | 0% |
| COc1ccc2c(c1OC)C[N@@+]1(C)CCc3cc4c(cc3[C@@H]1[C@H]2O)OCO4.[Cl-] | 0% | 0% | 0% | 0% | 0% | 0% | 0% | 0% | 0% | 0% | 0% |
| COc1cc2c(cc1OC)-c1c(C)c3ccc(OC)c(OC)c3c[n+]1CC2.[Cl-] | 0% | 0% | 0% | 0% | 0% | 0% | 65% | 0% | 0% | 0% | 0% |
| CCc1c2[n+](cc3c(OC)c(OC)ccc13)CCc1cc(OC)c(OC)cc1-2.[Cl-] | 0% | 0% | 0% | 0% | 0% | 0% | 70% | 0% | 0% | 0% | 0% |
| CCCc1c2[n+](cc3c(OC)c(OC)ccc13)CCc1cc(OC)c(OC)cc1-2.[Cl-] | 0% | 0% | 0% | 0% | 0% | 0% | 65% | 0% | 0% | 73% | 0% |
| CCCCc1c2[n+](cc3c(OC)c(OC)ccc13)CCc1cc(OC)c(OC)cc1-2.[Cl-] | 90% | 0% | 0% | 0% | 0% | 0% | 65% | 0% | 0% | 73% | 0% |
| CCCCc1c2[n+](cc3c(OC)c(OC)ccc13)CCc1cc3c(cc1-2)OCO3.[Cl-] | 90% | 0% | 0% | 0% | 0% | 0% | 60% | 0% | 0% | 67% | 0% |
| CCCCCCc1c2[n+](cc3c(OC)c(OC)ccc13)CCc1cc3c(cc1-2)OCO3.[Cl-] | 100% | 0% | 0% | 0% | 0% | 83% | 60% | 0% | 0% | 87% | 0% |
| CCCc1c2[n+](cc3c(OC)c(OC)ccc13)CCc1cc3c(cc1-2)OCO3.[Cl-] | 90% | 0% | 0% | 0% | 0% | 0% | 65% | 0% | 0% | 67% | 0% |
| COc1ccc2c(C)c3[n+](cc2c1OC)CCc1cc2c(cc1-3)OCO2.[Cl-] | 80% | 0% | 0% | 0% | 0% | 75% | 75% | 0% | 0% | 0% | 0% |
| CCc1c2[n+](cc3c(OC)c(OC)ccc13)CCc1cc3c(cc1-2)OCO3.[Cl-] | 90% | 0% | 0% | 0% | 0% | 58% | 70% | 0% | 0% | 60% | 0% |
| CCOc1c(OC)ccc2c(CC)c3[n+](cc12)CCc1cc2c(cc1-3)OCO2.[Cl-] [9-O-ETHYL-13-ETHYLBERBERRUBINE] | 90% | 0% | 0% | 0% | 0% | 8% | 70% | 0% | 0% | 87% | 0% |
| CCOc1c(OC)ccc2cc3[n+](cc12)CCc1cc2c(cc1-3)OCO2.[Cl-] [9-O-ETHYLBERBERRUBINE] | 90% | 0% | 0% | 0% | 0% | 75% | 70% | 0% | 0% | 0% | 0% |
| CCCCCCc1c2[n+](cc3c(OC)c(OC)ccc13)CCc1cc(OC)c(OC)cc1-2.[Cl-] [13-HEXYLPALMATINE] | 100% | 0% | 0% | 0% | 0% | 67% | 70% | 0% | 0% | 80% | 0% |
| COc1ccc2c(O)c3[n+](cc2c1OC)CCc1cc2c(cc1-3)OCO2.[Cl-] [13-HYDROXYBERBERINE] | 0% | 0% | 41% | 0% | 0% | 67% | 0% | 0% | 40% | 0% | 0% |
| COc1ccc2cc3[n+](cc2c1OC)CCc1cc2c(cc1-3)OCO2.[Cl-] [BERBERINE CHLORIDE] | 90% | 0% | 0% | 0% | 0% | 0% | 75% | 0% | 0% | 0% | 0% |
| COc1ccc2cc3[n+](cc2c1O)CCc1cc2c(cc1-3)OCO2 [BERBERRUBINE] | 0% | 0% | 0% | 0% | 0% | 0% | 0% | 0% | 0% | 0% | 0% |
| COc1cc2c(cc1OC)-c1cc3ccc(OC)c(OC)c3c[n+]1CC2.[Cl-] [PALMATINE CHLORIDE] | 80% | 0% | 0% | 0% | 0% | 0% | 0% | 0% | 0% | 0% | 0% |
